The target in experiment [1] is PI3K delta (Homo sapiens (Human), UniProt O00329). The experiment in a line: Enzymatic PI3K delta isoform inhibition (lipid kinase, Kinase-Glo luminescence). The class given is biochemical. In general terms: Kinase-Glo measures the ATP left after a reaction by luminescence.
Experiment [2] concerns the target PI3K alpha (Homo sapiens (Human), UniProt P42336). Description: Enzymatic PI3K alpha isoform inhibition (lipid kinase, Kinase-Glo luminescence). The class given is biochemical. As to conditions: enzymatic assay.

Where two headings read alike, the source gives them in different places.

Sequence of PI3K delta (O00329 other isoform, or with tags, fused parts or gaps linker GGGGGG): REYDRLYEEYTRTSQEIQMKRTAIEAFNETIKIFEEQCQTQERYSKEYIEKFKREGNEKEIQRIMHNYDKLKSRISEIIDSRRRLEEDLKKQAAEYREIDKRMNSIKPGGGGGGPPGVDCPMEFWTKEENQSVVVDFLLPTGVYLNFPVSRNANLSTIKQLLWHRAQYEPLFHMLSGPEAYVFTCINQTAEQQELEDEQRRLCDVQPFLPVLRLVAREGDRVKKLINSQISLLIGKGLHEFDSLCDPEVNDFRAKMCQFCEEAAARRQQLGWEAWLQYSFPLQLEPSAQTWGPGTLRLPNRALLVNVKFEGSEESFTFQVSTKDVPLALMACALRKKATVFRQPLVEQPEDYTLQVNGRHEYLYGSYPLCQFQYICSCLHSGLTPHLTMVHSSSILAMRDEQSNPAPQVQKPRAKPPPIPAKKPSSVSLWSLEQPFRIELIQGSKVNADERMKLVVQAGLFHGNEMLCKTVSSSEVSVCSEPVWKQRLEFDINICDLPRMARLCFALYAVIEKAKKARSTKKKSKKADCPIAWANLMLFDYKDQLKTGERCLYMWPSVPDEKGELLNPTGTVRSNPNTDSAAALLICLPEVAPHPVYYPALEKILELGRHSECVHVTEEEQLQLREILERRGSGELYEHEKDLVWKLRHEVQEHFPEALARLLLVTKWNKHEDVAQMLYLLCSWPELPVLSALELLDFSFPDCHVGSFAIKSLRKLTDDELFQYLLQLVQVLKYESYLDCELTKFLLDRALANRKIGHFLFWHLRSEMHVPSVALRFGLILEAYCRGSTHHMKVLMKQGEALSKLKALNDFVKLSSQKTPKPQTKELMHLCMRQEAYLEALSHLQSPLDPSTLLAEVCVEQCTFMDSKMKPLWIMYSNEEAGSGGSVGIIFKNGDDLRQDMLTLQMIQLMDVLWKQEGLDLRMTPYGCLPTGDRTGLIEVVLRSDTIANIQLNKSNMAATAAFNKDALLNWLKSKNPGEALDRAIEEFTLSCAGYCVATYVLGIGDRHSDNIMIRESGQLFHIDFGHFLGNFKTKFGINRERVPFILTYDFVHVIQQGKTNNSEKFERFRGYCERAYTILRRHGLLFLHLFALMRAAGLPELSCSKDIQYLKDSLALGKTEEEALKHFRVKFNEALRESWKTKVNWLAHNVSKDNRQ
Sequence of PI3K alpha (P42336 other isoform, or with tags, fused parts or gaps): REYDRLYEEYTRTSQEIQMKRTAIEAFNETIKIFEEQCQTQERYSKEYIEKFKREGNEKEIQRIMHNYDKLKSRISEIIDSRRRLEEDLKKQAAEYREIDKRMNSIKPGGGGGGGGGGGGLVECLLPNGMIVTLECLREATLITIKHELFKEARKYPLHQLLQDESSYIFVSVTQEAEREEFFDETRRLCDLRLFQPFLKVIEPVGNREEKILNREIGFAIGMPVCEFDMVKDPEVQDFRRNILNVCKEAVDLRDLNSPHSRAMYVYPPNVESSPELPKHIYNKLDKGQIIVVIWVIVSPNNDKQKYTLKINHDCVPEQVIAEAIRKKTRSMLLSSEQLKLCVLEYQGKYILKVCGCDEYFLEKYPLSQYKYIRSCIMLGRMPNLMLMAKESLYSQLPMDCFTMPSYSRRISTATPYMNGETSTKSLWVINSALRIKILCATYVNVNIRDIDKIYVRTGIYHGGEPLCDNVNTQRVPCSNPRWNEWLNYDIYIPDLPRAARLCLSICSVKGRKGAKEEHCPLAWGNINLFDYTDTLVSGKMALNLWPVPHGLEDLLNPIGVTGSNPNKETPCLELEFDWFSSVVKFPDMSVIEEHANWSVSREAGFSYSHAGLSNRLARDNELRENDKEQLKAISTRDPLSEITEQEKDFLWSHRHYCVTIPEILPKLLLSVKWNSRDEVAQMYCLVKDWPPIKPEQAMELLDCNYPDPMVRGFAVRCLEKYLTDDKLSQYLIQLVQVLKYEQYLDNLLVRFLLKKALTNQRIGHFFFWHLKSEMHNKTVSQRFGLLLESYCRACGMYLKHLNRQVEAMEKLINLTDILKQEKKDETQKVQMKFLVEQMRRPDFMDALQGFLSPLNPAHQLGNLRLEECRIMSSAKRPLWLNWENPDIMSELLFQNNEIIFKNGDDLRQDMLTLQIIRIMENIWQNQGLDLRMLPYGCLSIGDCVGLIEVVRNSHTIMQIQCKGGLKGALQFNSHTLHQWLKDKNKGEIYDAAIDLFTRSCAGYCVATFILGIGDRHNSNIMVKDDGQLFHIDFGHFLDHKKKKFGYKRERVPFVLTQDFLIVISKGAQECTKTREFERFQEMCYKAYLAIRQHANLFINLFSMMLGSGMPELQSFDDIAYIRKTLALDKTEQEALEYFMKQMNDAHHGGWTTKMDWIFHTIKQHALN

The term IC50 denotes the concentration needed to halve the response being measured. Low readings indicate greater potency in that assay, high ones weaker potency in that assay. `COc1ncc(N2CCc3ncnc(O[C@H]4CCN(C(=O)c5c[nH]cn5)C4)c3C2)cc1C(F)(F)F` [Example 45, (1H-Imidazol-4-yl)-{(S)-3-[6-(6-methoxy-5-trifluoromethyl-pyridin-3-yl)-5,6,7,8-tetrahydro-pyrido[4,3-d]pyrimidin-4-yloxy]-pyrrolidin-1-yl}-methanone]: the IC50 is 18 nM in experiment [1] (enzymatic assay) and 860 nM in experiment [2].
Consider `COc1ncc(N2CCc3ncnc(O[C@H]4CCN(C(=O)C5CCC(=O)N5)C4)c3C2)cc1C(F)(F)F` (stereo partly drawn) [Example 46, 5-{(S)-3-[6-(6-Methoxy-5-trifluoromethyl-pyridin-3-yl)-5,6,7,8-tetrahydro-pyrido[4,3-d]pyrimidin-4-yloxy]-pyrrolidine-1-carbonyl}-pyrrolidin-2-one], for which the IC50 in experiment [1] (enzymatic assay) was found to be 27 nM; in experiment [2] it was 803 nM.
Consider `COc1ncc(N2CCc3ncnc(O[C@H]4CCN(C(=O)c5ccncc5)C4)c3C2)cc1C(F)(F)F` [Example 47, {(S)-3-[6-(6-Methoxy-5-trifluoromethyl-pyridin-3-yl)-5,6,7,8-tetrahydro-pyrido[4,3-d]pyrimidin-4-yloxy]-pyrrolidin-1-yl}-pyridin-4-yl-methanone], for which the IC50 amounted to 25 nM in experiment [1] (enzymatic assay) and 656 nM in experiment [2].
For `COc1ncc(N2CCc3ncnc(O[C@H]4CCN(C(=O)c5cn(C)nc5C)C4)c3C2)cc1C(F)(F)F` [Example 48, (1,3-Dimethyl-1H-pyrazol-4-yl)-{(S)-3-[6-(6-methoxy-5-trifluoromethyl-pyridin-3-yl)-5,6,7,8-tetrahydro-pyrido[4,3-d]pyrimidin-4-yloxy]-pyrrolidin-1-yl}-methanone], in that order: 29 nM and 518 nM.
As to `COc1ncc(N2CCc3ncnc(O[C@H]4CCN(C(=O)c5cn[nH]c5)C4)c3C2)cc1C(F)(F)F` [Example 49, {(S)-3-[6-(6-Methoxy-5-trifluoromethyl-pyridin-3-yl)-5,6,7,8-tetrahydro-pyrido[4,3-d]pyrimidin-4-yloxy]-pyrrolidin-1-yl}-(1H-pyrazol-4-yl)-methanone], the IC50 in experiment [1] (enzymatic assay) was determined as 34 nM; in experiment [2] it was 388 nM.
Consider `COc1ncc(N2CCc3ncnc(O[C@H]4CCN(C(=O)c5nnc(C)o5)C4)c3C2)cc1C(F)(F)F` [Example 51, {(S)-3-[6-(6-Methoxy-5-trifluoromethyl-pyridin-3-yl)-5,6,7,8-tetrahydro-pyrido[4,3-d]pyrimidin-4-yloxy]-pyrrolidin-1-yl}-(5-methyl-[1,3,4]oxadiazol-2-yl)-methanone], for which the IC50 in experiment [1] (enzymatic assay) turned out to be 44 nM; in experiment [2] it was 912 nM.
Take `COc1ncc(N2CCc3ncnc(O[C@H]4CCN(C(=O)c5cnccn5)C4)c3C2)cc1C(F)(F)F` [Example 52, {(S)-3-[6-(6-Methoxy-5-trifluoromethyl-pyridin-3-yl)-5,6,7,8-tetrahydro-pyrido[4,3-d]pyrimidin-4-yloxy]-pyrrolidin-1-yl}-pyrazin-2-yl-methanone]: the results for the IC50 in experiment [1] (enzymatic assay) and in experiment [2] were 46 nM and 1020 nM, respectively.
Regarding `COc1ncc(N2CCc3ncnc(O[C@H]4CCN(C(=O)c5cn(C)cn5)C4)c3C2)cc1C(F)(F)F` [Example 53, {(S)-3-[6-(6-Methoxy-5-trifluoromethyl-pyridin-3-yl)-5,6,7,8-tetrahydro-pyrido[4,3-d]pyrimidin-4-yloxy]-pyrrolidin-1-yl}-(1-methyl-1H-imidazol-4-yl)-methanone], the IC50 in experiment [1] (enzymatic assay) worked out at 6 nM; in experiment [2], 504 nM.
For `COc1ncc(N2CCc3ncnc(O[C@H]4CCN(C(=O)c5cnn(C)c5)C4)c3C2)cc1C(F)(F)F` [Example 54, {(S)-3-[6-(6-Methoxy-5-trifluoromethyl-pyridin-3-yl)-5,6,7,8-tetrahydro-pyrido[4,3-d]pyrimidin-4-yloxy]-pyrrolidin-1-yl}-(1-methyl-1H-pyrazol-4-yl)-methanone], in that order: 5 nM and 384 nM.
Consider `COc1ncc(N2CCc3ncnc(O[C@H]4CCN(C(=O)c5cscn5)C4)c3C2)cc1C(F)(F)F` [Example 55, {(S)-3-[6-(6-Methoxy-5-trifluoromethyl-pyridin-3-yl)-5,6,7,8-tetrahydro-pyrido[4,3-d]pyrimidin-4-yloxy]-pyrrolidin-1-yl}-thiazol-4-yl-methanone], for which the figures for the IC50 in experiment [1] (enzymatic assay) and in experiment [2] were 5 nM and 661 nM, respectively.
Take `COc1ncc(N2CCc3ncnc(O[C@H]4CCN(C(=O)C5CCOCC5)C4)c3C2)cc1Cl` [Example 56, {(S)-3-[6-(5-Chloro-6-methoxy-pyridin-3-yl)-5,6,7,8-tetrahydro-pyrido[4,3-d]pyrimidin-4-yloxy]-pyrrolidin-1-yl}-(tetrahydro-pyran-4-yl)-methanone]: the IC50 came out at 13 nM in experiment [1] (enzymatic assay) and 860 nM in experiment [2].
Turning to `Nc1ncc(N2CCc3ncnc(O[C@H]4CCN(C(=O)C5CCOCC5)C4)c3C2)cc1C(F)(F)F` [Example 57, {(S)-3-[6-(6-Amino-5-trifluoromethyl-pyridin-3-yl)-5,6,7,8-tetrahydro-pyrido[4,3-d]pyrimidin-4-yloxy]-pyrrolidin-1-yl}-(tetrahydro-pyran-4-yl)-methanone], the IC50 stood at 25 nM in experiment [1] (enzymatic assay) and 590 nM in experiment [2].
For the molecule `COc1ncc(N2CCc3ncnc(OC4CN(C(=O)C5CCOCC5)C4)c3C2)cc1C(F)(F)F` [Example 58, {3-[6-(6-Methoxy-5-trifluoromethyl-pyridin-3-yl)-5,6,7,8-tetrahydro-pyrido[4,3-d]pyrimidin-4-yloxy]-azetidin-1-yl}-(tetrahydro-pyran-4-yl)-methanone], the IC50 in experiment [1] (enzymatic assay) was found to be 30 nM; in experiment [2], 3060 nM.
In the case of `COc1ncc(N2CCc3ncnc(O[C@H]4CCN(C(=O)C5CCOCC5)C4)c3C2)cn1` [Example 59, {(S)-3-[6-(2-Methoxy-pyrimidin-5-yl)-5,6,7,8-tetrahydro-pyrido[4,3-d]pyrimidin-4-yloxy]-pyrrolidin-1-yl}-(tetrahydro-pyran-4-yl)-methanone], the IC50 in experiment [1] (enzymatic assay) amounted to 28 nM; in experiment [2], 9100 nM.
As to `O=C(C1CCOCC1)N1CC[C@H](Oc2ncnc3c2CN(c2cnc4ccccc4c2)CC3)C1` [Example 60, [(S)-3-(6-Quinolin-3-yl-5,6,7,8-tetrahydro-pyrido[4,3-d]pyrimidin-4-yloxy)-pyrrolidin-1-yl]-(tetrahydro-pyran-4-yl)-methanone], the IC50 in experiment [1] (enzymatic assay) stood at 45 nM; in experiment [2] it was 3330 nM.
Regarding `COc1ncc(N2CCc3ncnc(O[C@H]4CCN(C(=O)C5CCOCC5)C4)c3C2)cc1C(F)(F)F` [Example 61, {(S)-3-[6-(6-Methoxy-5-trifluoromethyl-pyridin-3-yl)-5,6,7,8-tetrahydro-pyrido[4,3-d]pyrimidin-4-yloxy]-pyrrolidin-1-yl}-(tetrahydro-pyran-4-yl)-methanone], the values for the IC50 in experiment [1] (enzymatic assay) and in experiment [2] were 12 nM and 589 nM, respectively.
For `COc1ncc(N2CCc3ncnc(O[C@H]4CCN(C(=O)CC(C)(C)C)C4)c3C2)cc1C(F)(F)F` [Example 62, 1-{(S)-3-[6-(6-Methoxy-5-trifluoromethyl-pyridin-3-yl)-5,6,7,8-tetrahydro-pyrido[4,3-d]pyrimidin-4-yloxy]-pyrrolidin-1-yl}-3,3-dimethyl-butan-1-one], in that order: 23 nM and 489 nM.
`CCC(=O)N1CC[C@H](Oc2ncnc3c2CN(c2cnc(OC)c(C(F)(F)F)c2)CC3)C1` [Example 63, 1-{(S)-3-[6-(6-Methoxy-5-trifluoromethyl-pyridin-3-yl)-5,6,7,8-tetrahydro-pyrido[4,3-d]pyrimidin-4-yloxy]-pyrrolidin-1-yl}-propan-1-one]: the IC50 in experiment [1] (enzymatic assay) is 51 nM; in experiment [2], 791 nM.
For the molecule `CCC(=O)N1CC[C@H](Oc2ncnc3c2CN(c2cnc(OC)c(C#N)c2)CC3)C1` [Example 64, 2-Methoxy-5-[4-((S)-1-propionyl-pyrrolidin-3-yloxy)-7,8-dihydro-5H-pyrido[4,3-d]pyrimidin-6-yl]-nicotinonitrile], the results for the IC50 in experiment [1] (enzymatic assay) and in experiment [2] were 32 nM and 2330 nM, respectively.
Take `COc1ncc(N2CCc3ncnc(O[C@H]4CCN(c5ncccn5)C4)c3C2)cc1C(F)(F)F` [Example 66, 6-(6-Methoxy-5-trifluoromethyl-pyridin-3-yl)-4-((S)-1-pyrimidin-2-yl-pyrrolidin-3-yloxy)-5,6,7,8-tetrahydro-pyrido[4,3-d]pyrimidine]: the IC50 in experiment [1] came to 14 nM; in experiment [2], 1280 nM.
For `COc1ncc(N2CCc3ncnc(N[C@H]4CCN(C(=O)C5CCOCC5)C4)c3C2)cc1C#N` [Example 69, 2-Methoxy-5-{4-[(S)-1-(tetrahydro-pyran-4-carbonyl)-pyrrolidin-3-ylamino]-7,8-dihydro-5H-pyrido[4,3-d]pyrimidin-6-yl}-nicotinonitrile], the IC50 in experiment [1] (enzymatic assay) came out at 3 nM; in experiment [2], 56 nM.
On to `COc1ncc(N2CCc3ncnc(N[C@H]4CCN(C(=O)C5CCN(C(C)=O)CC5)C4)c3C2)cc1C(F)(F)F` [Example 70, 1-(4-{(S)-3-[6-(6-methoxy-5-trifluoromethyl-pyridin-3-yl)-5,6,7,8-tetrahydro-pyrido[4,3-d]pyrimidin-4-ylamino]-pyrrolidine-1-carbonyl}-piperidin-1-yl)-ethanone], for which the IC50 in experiment [1] (enzymatic assay) is 6 nM; in experiment [2], 121 nM.
As to `COc1ncc(N2CCc3ncnc(N[C@H]4CCN(C(=O)c5cnco5)C4)c3C2)cc1C(F)(F)F` [Example 72, {(S)-3-[6-(6-Methoxy-5-trifluoromethyl-pyridin-3-yl)-5,6,7,8-tetrahydro-pyrido[4,3-d]pyrimidin-4-ylamino]-pyrrolidin-1-yl}-oxazol-5-yl-methanone], the IC50 amounted to 4 nM in experiment [1] (enzymatic assay) and 93 nM in experiment [2].
The like results for `COc1ncc(N2CCc3ncnc(N[C@H]4CCN(C(=O)c5cn(C)cn5)C4)c3C2)cc1C` [Example 77, -{(S)-3-[6-(6-Methoxy-5-methyl-pyridin-3-yl)-5,6,7,8-tetrahydro-pyrido[4,3-d]pyrimidin-4-ylamino]-pyrrolidin-1-yl}-(1-methyl-1H-imidazol-4-yl)-methanone] were, in that order, 44 nM and 1290 nM.
In the case of `COc1ncc(N2CCc3ncnc(N[C@H]4CCN(C(=O)c5cnco5)C4)c3C2)cc1C` [Example 78, {(S)-3-[6-(6-Methoxy-5-methyl-pyridin-3-yl)-5,6,7,8-tetrahydro-pyrido[4,3-d]pyrimidin-4-ylamino]-pyrrolidin-1-yl}-oxazol-5-yl-methanone], the IC50 in experiment [1] (enzymatic assay) worked out at 12 nM; in experiment [2], 384 nM.

The values are drawn from US8653092B2, “Tetrahydro-pyrido-pyrimidine derivatives” (Novartis AG, priority 2010, dated 2014).
